Experimental findings from patent US20140171438A1, “Hybrid Compounds And Methods Of Making And Using The Same” (CELLCEUTIX CORPORATION, priority 2012, published 2014) are described below.

≈ marks a conversion by molar mass, not a printed value.

In series [1] the test system is Pseudomonas aeruginosa ATCC 10145. The experiment in a line: Antimicrobial activity, MIC, modified microbroth dilution. The class given is cell-based. The following applies: ATCC10145, P. aeruginosa (10145), 18 hours incubation, read-out: MIC (expressed as MIC50) P. Aeruginosa. The method, then:
(§1) The compounds were screened for antimicrobial activity against a number of ATCC bacterial strains. Minimum Inhibitory Concentrations (MIC) of each of the compounds were determined using standard CLSI procedures modified by Hancock protocol against E. Coli ATCC 25922, Staphylococcus aureus ATCC 27660, Enterococcus faecalis ATCC 29212, Pseudomonas aeruginosa ATCC 10145, and Klebsiella pneumoniae ATCC 13883.
(§2) This procedure is a modification of the standard microbroth dilution assay recommended by the National Committee for Clinical Laboratory Standards (NCCLS) which has been developed for determining in vitro antimicrobial activities of cationic agents (Steinberg et al., Antimicrob. Agents Chemother., 1997, 41, 1738; and Yan et al., Antimicrob. Agents Chemother., 2001, 45, 1558). The modifications were made to minimize loss of the antimicrobial agent due to adsorption onto glass or plastic surfaces and by precipitation at high concentrations.
(§3) Three mL of Mueller-Hinton II Broth (cation-adjusted) was inoculated with 5 μL of frozen bacterial stock and incubated at 37° C. on a shaker platform (at 250 rpm) overnight. Compound stock solutions were prepared in DMSO and serial two-fold dilutions of compound were made in 0.01% acetic acid, 0.2% bovine serum albumin directly in the wells of the polypropylene plate at 10 μL/well. […] All samples were performed in duplicate. The overnight bacteria suspension was diluted to approximately 10^6 cfu/mL and inoculated into a polypropylene (Costar) 96-well round bottom plate (90 μL volumes). One set of control wells included broth-only samples with dilution buffer for testing sterility and providing blank values for the assay readings. Vehicle-control wells containing the bacterial suspension with DMSO (no compound) were also included. Following the overnight incubation (18 hours), cell growth was assessed by observing the presence of “acceptable growth”, defined by NCCLS as a ≧2 mm button or definite turbidity.
(§4) Actual results from a representative MIC assay are shown below in Table 1. Data is expressed as MIC50 in μg/mL. The bacterial isolates were as follows: E. coli (25922); S. aureus (27660); E. faecalis (29212); P. aeruginosa (10145); and K. pneumoniae (13883).

The subject of series [2] is Staphylococcus aureus ATCC 27660. The series is described as above. The class given is cell-based. Particulars: ATCC27660, S. aureus (27660), 18 hours incubation, read-out: MIC (expressed as MIC50) S. aureus. As for the experimental part:
as §1, §2, §3, §4

The test system of series [3] is Enterococcus faecalis ATCC 29212. The series is described as above. The class given is cell-based. The following applies: ATCC29212, E. faecalis (29212), 18 hours incubation, read-out: MIC (expressed as MIC50) E. faecalis. As for the experimental part: as §1, §2, §3, §4
Series [4] has as its system Klebsiella pneumoniae ATCC 13883. Described as above. The class given is cell-based. Particulars: ATCC13883, K. pneumoniae (13883), 18 hours incubation, read-out: MIC (expressed as MIC50) K. Pnuemnoiae. As for the experimental part: as §1, §2, §3, §4
For the next series, the system named is E. Coli ATCC 25922. Described as above. The class given is cell-based. The following applies: Escherichia coli, ATCC25922; E. coli (25922); 18 hours incubation; read-out: MIC (expressed as MIC50) E. coli. The method, then:
as §1, §2, §3, §4

The nature of series [5]: Cytotoxicity, colorimetric tetrazolium assay. The following applies: one hour with compound in serum-free media. In kind it is cell-based. The method, then:
Cytotoxicity of the compounds was evaluated in a colorimetric assay using a transformed human liver cell line (HepG2, HB-8065) and an embryonic mouse cell line (NIH/3T3 cells, CRL-1658). This assay measures the bioreduction of a novel tetrazolium compound to a soluble formazan product by viable cells. HepG2 cells were seeded in 96 well plates at 2×10^4 cells/well in MEM medium with 10% fetal bovine serum (FBS) for 24 hours prior to use. NIH/3T3 cells were seeded in 96 well plates at 2×10^4 cells/well in DMEM medium with 10% bovine calf serum (BCS) 24 hours prior to use. Cell monolayers were rinsed in serum-free media and incubated for one hour with the compound in serum-free media. After incubation, the media was replaced with serum supplemented media and live cells were measured using the Cell Titer 96 Aqueous […] (Promega, Madison, Wis.). EC50 values were determined using a four parameter logistic equation: Y=Bottom+(Top−Bottom)/(1+10̂((Log EC50−X)*HillSlope)). Actual results from a representative cytotoxicity assay are shown below in Table 2. Data is expressed as EC50 in μg/mL.

Another series relates to MRSA ATCC 33591. The series can be described thus: Anti-biofilm activity, minimum biofilm eradication concentration (MBEC). Particulars: MRSA ATCC 33591 biofilm on filter paper disks; 24 hours challenge. The class given is cell-based, Staphylococcus aureus. The method, then: The in vitro activity against biofilm was carried out by following the protocol for biofilm development and challenge using filter paper disks and 24-well plates. On day one, a tryptic soy agar plate (TSA) was streaked for MRSA isolation. On the second day a single colony of MRSA was grown in about 5 mL of tryptic soy broth (TSB). Filter papers were punched and autoclaved in 96-well plate. On the third day, a single filter paper disk was placed in each well of 24-well plate. The plate was inoculated with 300 μL/well of 0.01 adjusted OD600 bacteria inoculum in TSB supplemented with 1% glucose and 1.6% NaCl. The cells were allowed to grow for 48 hours on a shaker at 37° C. On day five, the challenge plate(s) were made in a 24-well plate(s), using eppendorf tubes to make dilutions and aliquoted into designated wells. The wash plates were filled in each well of a 24-well plate with 500 μL 0.9% saline. The disks were removed with forceps from the growth plate to the wash plate to challenge plate, flaming in between or where needed. Once disks are in challenge plate, incubated for 24 hours on shaker at 37° C. […] On day seven, the colonies were counted.
The actual MBEC of Compound 113 against MRSA ATCC 33591 was determined to be 32 μg/mL.

Setting [6] is: mouse, NIH/3T3 cells (CRL-1658).

The term MIC50 denotes the lowest concentration that inhibits either 50% of growth or 50% of the strains tested, depending on the study. A word on the EC50: it is the concentration at which the effect is half-maximal. As to `N=C(N)NCCCCC(=O)Nc1cc(C(F)(F)F)cc(NC(=O)Nc2ccc(Oc3ccc(NCCN)c(C(F)(F)F)c3)c(CCCN)c2)c1SCCN` [Compound 108, N-[3-[[4-[4-(2-aminoethylamino)-3-(trifluoromethyl)phenoxy]-3-(3-aminopropyl)phenyl]carbamoylamino]-2-(2-aminoethylsulfanyl)-5-(trifluoromethyl)phenyl]-5-guanidino-pentanamide], the MIC50 in series [1] is 6.25 µg/mL (≈ 7.94 µM); in series [2], 3.13 µg/mL (≈ 3.98 µM); in series [3], 1.56 µg/mL (≈ 1.98 µM); in series [4], 3.13 µg/mL (≈ 3.98 µM); in the series on E. Coli ATCC 25922, 3.13 µg/mL (≈ 3.98 µM). The half-maximal effective concentration (EC50) at 1 h in series [5] (human, HepG2 cells (HB-8065)) amounted to 395 µg/mL (≈ 502 µM); in series [5] (setting [6]), 186 µg/mL (≈ 236 µM).

Consider `N=C(N)NCCCCC(=O)Nc1cc(C(F)(F)F)cc(NC(=O)Nc2ccc(Oc3ccc(NCCN)c(C(F)(F)F)c3)c(CCCN)c2)c1O[C@@H]1CCNC1` [Compound 109, N-[3-[[4-[4-(2-aminoethylamino)-3-(trifluoromethyl)phenoxy]-3-(3-aminopropyl)phenyl]carbamoylamino]-2-[(3R)-pyrrolidin-3-yl]oxy-5-(trifluoromethyl)phenyl]-5-guanidino-pentanamide], for which the MIC50 in series [1] amounted to 12.5 µg/mL (≈ 15.7 µM); in series [2] it was 3.13 µg/mL (≈ 3.93 µM); in series [3] it was 1.56 µg/mL (≈ 1.96 µM); in series [4], 6.25 µg/mL (≈ 7.84 µM); with E. Coli ATCC 25922, 6.25 µg/mL (≈ 7.84 µM). The EC50 at 1 h came out at 409 µg/mL (≈ 513 µM) in series [5] (human, HepG2 cells (HB-8065)) and 256 µg/mL (≈ 321 µM) in series [5] (setting [6]).

For `N=C(N)NCCCC(=O)Nc1cc(C(F)(F)F)cc(NC(=O)Nc2ccc3nc(-c4ccc(NCCCN)cc4)sc3c2)c1SCCN` [Compound 110, N-[2-(2-aminoethylsulfanyl)-3-[[2-[4-(3-aminopropylamino)phenyl]-1,3-benzothiazol-6-yl]carbamoylamino]-5-(trifluoromethyl)phenyl]-4-guanidino-butanamide], the MIC50 stood at 6.25 µg/mL (≈ 8.89 µM) in series [1]; 0.098 µg/mL (≈ 0.139 µM) in series [2]; 1.56 µg/mL (≈ 2.22 µM) in series [3]; 3.13 µg/mL (≈ 4.45 µM) in series [4]; 1.56 µg/mL (≈ 2.22 µM) in the series with E. Coli ATCC 25922. For the same molecule, the EC50 at 1 h worked out at 49.9 µg/mL (≈ 71 µM) in series [5] (human, HepG2 cells (HB-8065)) and 50.7 µg/mL (≈ 72.1 µM) in series [5] (setting [6]).

With `N=C(N)NCCCCC(=O)Nc1cc(C(F)(F)F)cc(NC(=O)Nc2ccc3nc(NC(=O)Nc4cc(C(F)(F)F)cc(NC(=O)CCCCNC(=N)N)c4SCCN)sc3c2)c1SCCN` [Compound 111, N-[2-(2-aminoethylsulfanyl)-3-[[2-[[2-(2-aminoethylsulfanyl)-3-(5-guanidinopentanoylamino)-5-(trifluoromethyl)phenyl]carbamoylamino]-1,3-benzothiazol-6-yl]carbamoylamino]-5-(trifluoromethyl)phenyl]-5-guanidino-pentanamide], the MIC50 in series [1] was determined as 12.5 µg/mL (≈ 12.5 µM); in series [2], 0.195 µg/mL (≈ 0.195 µM); in series [3], 3.13 µg/mL (≈ 3.12 µM); in series [4], 3.13 µg/mL (≈ 3.12 µM); in the series with E. Coli ATCC 25922, 3.13 µg/mL (≈ 3.12 µM). For the same molecule, the EC50 at 1 h in series [5] (human, HepG2 cells (HB-8065)) came out at 54 µg/mL (≈ 53.9 µM); in series [5] (setting [6]), 50.1 µg/mL (≈ 50 µM).

On to `N=C(N)NCCCCC(=O)Nc1cc(C(F)(F)F)cc(NC(=O)Nc2ccc3nc(NC(=O)Nc4cc(C(F)(F)F)cc(NC(=O)CCCCNC(=N)N)c4O[C@@H]4CCNC4)sc3c2)c1O[C@@H]1CCNC1` [Compound 112, 5-guanidino-N-[3-[[2-[[3-(5-guanidinopentanoylamino)-2-[(3R)-pyrrolidin-3-yl]oxy-5-(trifluoromethyl)phenyl]carbamoylamino]-1,3-benzothiazol-6-yl]carbamoylamino]-2-[(3R)-pyrrolidin-3-yl]oxy-5-(trifluoromethyl)phenyl]pentanamide], for which the MIC50 in series [1] worked out at 25 µg/mL (≈ 24.5 µM); in series [2], 0.098 µg/mL (≈ 0.0959 µM); in series [3] it was 1.56 µg/mL (≈ 1.53 µM); in series [4], 3.13 µg/mL (≈ 3.06 µM); in the series with E. Coli ATCC 25922, 1.56 µg/mL (≈ 1.53 µM). Besides, the EC50 at 1 h came out at 105 µg/mL (≈ 103 µM) in series [5] (human, HepG2 cells (HB-8065)) and 52.5 µg/mL (≈ 51.4 µM) in series [5] (setting [6]).

Regarding `NCCCc1cc(NC(=O)Nc2cc(C(F)(F)F)c(SCCN)cc2SCCN)ccc1Oc1ccc(NCCN)c(C(F)(F)F)c1` [Compound 113, 1-[4-[4-(2-aminoethylamino)-3-(trifluoromethyl)phenoxy]-3-(3-aminopropyl)phenyl]-3-[2,4-bis(2-aminoethylsulfanyl)-5-(trifluoromethyl)phenyl]urea], the MBEC in the series with MRSA ATCC 33591 was determined as 32 µg/mL. Besides, the MIC50 amounted to 3.13 µg/mL (≈ 4.43 µM) in series [1]; 1.56 µg/mL (≈ 2.21 µM) in series [2]; 0.78 µg/mL (≈ 1.11 µM) in series [3]; 3.13 µg/mL (≈ 4.43 µM) in series [4]; 3.13 µg/mL (≈ 4.43 µM) with E. Coli ATCC 25922. Also, the EC50 at 1 h in series [5] (human, HepG2 cells (HB-8065)) stood at 191 µg/mL (≈ 271 µM); in series [5] (setting [6]), 142 µg/mL (≈ 201 µM).

Take `NCCCc1cc(NC(=O)Nc2ccc(SCCN)c(C(F)(F)F)c2)ccc1Oc1ccc(NCCN)c(C(F)(F)F)c1` [Compound 114, 1-[4-[4-(2-aminoethylamino)-3-(trifluoromethyl)phenoxy]-3-(3-aminopropyl)phenyl]-3-[4-(2-aminoethylsulfanyl)-3-(trifluoromethyl)phenyl]urea]: the MIC50 in series [1] worked out at 3.13 µg/mL (≈ 4.96 µM); in series [2], 1.56 µg/mL (≈ 2.47 µM); in series [3] it was 1.56 µg/mL (≈ 2.47 µM); in series [4] it was 12.5 µg/mL (≈ 19.8 µM); in the series with E. Coli ATCC 25922, 6.25 µg/mL (≈ 9.91 µM). Further, the EC50 at 1 h in series [5] (human, HepG2 cells (HB-8065)) stood at 238 µg/mL (≈ 377 µM); in series [5] (setting [6]), 160 µg/mL (≈ 254 µM).

Usually MIC stands for the lowest concentration found to suppress growth. `NCC#Cc1cc(-n2ccc3cc([N+](=O)[O-])ccc32)cc(C(F)(F)F)c1` [Compound 115]: the MIC in series [1] was 7.5 µg/mL (≈ 20.9 µM); in series [2] it was 6.25 µg/mL (≈ 17.4 µM); in series [3], 25 µg/mL (≈ 69.6 µM); in series [4] it was 25 µg/mL (≈ 69.6 µM); in the series with E. Coli ATCC 25922, 25 µg/mL (≈ 69.6 µM). In addition, the EC50 at 1 h in series [5] (human, HepG2 cells (HB-8065)) turned out to be 74.3 µg/mL (≈ 207 µM); in series [5] (setting [6]), 43.3 µg/mL (≈ 121 µM).
